Source: ChEMBL document CHEMBL4024791, “Identification of Morpholino-2H-pyrido[3,2-b][1,4]oxazin-3(4H)-ones as Nonsteroidal Mineralocorticoid Antagonists” (J Med Chem, 2018)

Experiments:
[1] = biological target: T1, Mineralocorticoid receptor (Rattus norvegicus, UniProt P22199); experiment: Antagonist activity at rat GAL4-DBD fused MR ligand binding domain transfected in human Huh7 cells co-expressing GAL4-RE-Luc assessed as reduction in aldosterone-induced luciferase activity after 16 hrs in serum free condition by luciferase reporter gene assay; type: cell-based
T1 sequence (P22199 whole entry): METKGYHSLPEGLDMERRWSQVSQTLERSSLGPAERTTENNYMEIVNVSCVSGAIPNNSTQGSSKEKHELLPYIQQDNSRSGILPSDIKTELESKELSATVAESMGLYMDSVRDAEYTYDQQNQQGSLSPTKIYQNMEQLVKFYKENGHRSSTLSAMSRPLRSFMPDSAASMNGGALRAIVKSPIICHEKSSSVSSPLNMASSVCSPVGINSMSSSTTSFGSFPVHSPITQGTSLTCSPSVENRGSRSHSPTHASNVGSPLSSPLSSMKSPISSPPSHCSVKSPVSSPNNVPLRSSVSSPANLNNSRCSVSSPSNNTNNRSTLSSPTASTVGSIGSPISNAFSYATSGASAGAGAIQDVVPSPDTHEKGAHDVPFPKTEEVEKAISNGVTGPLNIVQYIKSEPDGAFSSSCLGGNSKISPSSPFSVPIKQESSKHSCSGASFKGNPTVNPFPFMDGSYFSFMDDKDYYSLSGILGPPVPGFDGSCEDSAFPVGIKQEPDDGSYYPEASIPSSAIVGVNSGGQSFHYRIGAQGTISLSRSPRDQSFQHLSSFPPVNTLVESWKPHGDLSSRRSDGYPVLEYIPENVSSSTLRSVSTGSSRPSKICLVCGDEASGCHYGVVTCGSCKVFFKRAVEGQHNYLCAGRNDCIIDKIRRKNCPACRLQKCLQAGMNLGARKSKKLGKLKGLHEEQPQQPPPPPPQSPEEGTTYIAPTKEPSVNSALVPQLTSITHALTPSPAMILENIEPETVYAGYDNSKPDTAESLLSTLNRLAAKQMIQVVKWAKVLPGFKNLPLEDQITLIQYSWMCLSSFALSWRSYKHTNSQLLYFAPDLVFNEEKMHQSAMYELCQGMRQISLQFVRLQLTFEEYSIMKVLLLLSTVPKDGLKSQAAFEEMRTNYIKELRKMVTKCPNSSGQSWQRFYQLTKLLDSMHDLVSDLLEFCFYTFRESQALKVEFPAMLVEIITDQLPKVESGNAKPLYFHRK

[2] = AUC in Wistar rat at 100 mg/kg, po administered as single dose measured up to 8 hrs post dose by LC-MS analysis; type: ADME, organism-based; parameters: dose 100 mg/kg, time < 8 hr, route oral; details: in vivo
[3] = Apparent permeability across apical to basolateral side in RRCK cells; type: ADME, cell-based, Canis lupus familiaris, MDCKII-LE; details: dog, MDCK
[4] = Volume of distribution at steady state in dog; type: ADME, Canis lupus familiaris; details: in vivo, read-out: Vdss
Glucocorticoid receptor [5] = biological target: T2, Glucocorticoid receptor (Homo sapiens, UniProt P04150); experiment: Displacement of [3H]-dexamethasone from recombinant human GST-tagged GR ligand binding domain after 4 hrs by liquid scintillation counting
T2 sequence (P04150 whole entry): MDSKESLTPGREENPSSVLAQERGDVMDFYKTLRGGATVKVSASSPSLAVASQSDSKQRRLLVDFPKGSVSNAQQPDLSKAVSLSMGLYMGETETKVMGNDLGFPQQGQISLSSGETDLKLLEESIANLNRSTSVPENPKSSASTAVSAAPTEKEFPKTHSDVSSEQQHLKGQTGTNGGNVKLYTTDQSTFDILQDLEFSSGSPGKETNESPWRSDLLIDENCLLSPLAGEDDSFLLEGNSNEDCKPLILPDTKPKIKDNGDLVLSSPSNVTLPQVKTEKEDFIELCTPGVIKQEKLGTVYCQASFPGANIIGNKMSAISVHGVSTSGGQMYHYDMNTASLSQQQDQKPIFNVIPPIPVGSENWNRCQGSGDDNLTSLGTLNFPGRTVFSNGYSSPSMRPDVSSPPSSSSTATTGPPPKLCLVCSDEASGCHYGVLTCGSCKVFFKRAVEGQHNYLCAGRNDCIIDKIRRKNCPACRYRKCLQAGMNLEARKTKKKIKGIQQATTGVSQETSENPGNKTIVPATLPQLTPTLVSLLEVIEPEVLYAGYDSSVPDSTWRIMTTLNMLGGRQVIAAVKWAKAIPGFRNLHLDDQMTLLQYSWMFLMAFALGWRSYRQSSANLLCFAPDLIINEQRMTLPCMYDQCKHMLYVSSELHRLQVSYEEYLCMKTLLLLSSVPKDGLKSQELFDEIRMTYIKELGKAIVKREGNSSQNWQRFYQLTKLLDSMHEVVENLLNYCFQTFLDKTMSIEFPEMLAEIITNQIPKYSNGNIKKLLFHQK

Estrogen receptor = biological target: T3, Estrogen receptor (Homo sapiens, UniProt P03372); experiment: Binding affinity to ERalpha (unknown origin)
T3 sequence (P03372 whole entry): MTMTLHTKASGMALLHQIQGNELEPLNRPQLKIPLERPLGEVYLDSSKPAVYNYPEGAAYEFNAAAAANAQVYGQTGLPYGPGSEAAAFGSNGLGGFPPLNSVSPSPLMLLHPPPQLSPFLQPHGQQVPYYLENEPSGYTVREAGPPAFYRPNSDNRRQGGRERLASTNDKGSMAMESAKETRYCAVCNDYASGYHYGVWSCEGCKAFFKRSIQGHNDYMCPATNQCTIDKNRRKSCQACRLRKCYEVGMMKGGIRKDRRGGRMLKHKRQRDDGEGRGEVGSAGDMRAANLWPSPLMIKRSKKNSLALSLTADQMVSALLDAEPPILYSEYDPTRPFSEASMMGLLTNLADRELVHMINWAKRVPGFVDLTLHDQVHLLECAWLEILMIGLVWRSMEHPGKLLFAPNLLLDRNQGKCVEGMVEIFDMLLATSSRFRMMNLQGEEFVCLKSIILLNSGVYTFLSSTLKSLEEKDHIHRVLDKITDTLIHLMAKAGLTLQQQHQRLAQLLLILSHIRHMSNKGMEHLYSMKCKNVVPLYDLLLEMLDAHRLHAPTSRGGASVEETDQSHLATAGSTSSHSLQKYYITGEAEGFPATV

Glucocorticoid receptor [6] = biological target: T2, Glucocorticoid receptor; experiment: Binding affinity to GR (unknown origin) expressed in human IM9 cells; type: cell-based
Salmonella typhimurium = experiment: Genotoxicity in Salmonella typhimurium by Ames test; type: toxicity; details: salmonella enterica subsp. enterica serovar typhimurium
[7] = Oral bioavailability in dog; type: ADME, organism-based, Canis lupus familiaris; details: in vivo
[8] = Volume of distribution at steady state in rat; type: ADME; details: in vivo, read-out: Vdss
[9] = Intrinsic clearance in human liver microsomes

Structure (SMILES) | IC50 [1] [µM] | AUC at 8 h [2] [µg·h/mL] | Papp A→B [3] [nm/s] | Vd [4] [L/kg] | IC50 (Glucocorticoid receptor [5]) [µM] | IC50 (Estrogen receptor) [µM] | IC50 (Glucocorticoid receptor [6]) [µM] | Activity (Salmonella typhimurium) | bioavailability [7] [%] | Vd [8] [L/kg] | microsomal CLint [9] [µL/min/mg]
C[C@@H]1CN(c2ccc3c(n2)NC(=O)CO3)[C@H](c2ccccc2)CO1 | 0.0032 | 9.41 | 459 | 2.37 | > 10 | > 10 | 0.597 | Non-Toxic | 65 | 6.15 | –
O=C1COc2ccc(N3CCOC[C@H]3c3ccccc3)cc2N1 | – | – | – | – | – | – | – | – | – | – | 18.3
